This note sets out measurements from US20140187556A1, “ANTI-AMYLOID COMPOUNDS AND METHODS” (Treventis Corporation, priority 2011, published 2014).

Structures are written as SMILES.

Data set [1] addresses Tau441 (Homo sapiens, UniProt P10636). Kind of data set: Thioflavin S (ThS) tau aggregation assay. Type of data set: biochemical. The note with it: 20 μM, FIG. 1. On the procedure:
Analogous to the method of Example 1, the ability of compounds to inhibit the aggregation of tau was performed by substituting […] with tau and Thioflavin T with Thioflavin S.

For data set [2], the target named is alpha-synuclein (Homo sapiens, UniProt P37840). Kind of data set: alpha-synuclein aggregation assay (ThT, analogous to Example 1). Type of data set: biochemical. The note with it: 10 μM compound. On the procedure: Analogous to the method of Example 1, the ability of compounds to inhibit the aggregation of alpha-synuclein was performed by substituting Aβ with alpha-synuclein.

A short description of data set [3]: Blood-brain barrier penetration potential using MDR1-MDCK cell monolayers. Format: in vitro ADME. The note with it: dog. The source says:
This assay is used to determine the blood-brain barrier (BBB) penetration potential of a test compound using MDR1-MDCK cell monolayers. Further details on this method may be found in Taub M E, et al., Functional assessment of multiple Pglycoprotein (P-gp) probe substrates: Influence of cell line and modulator concentration on P-gp activity. Drug Metab Dispos. 2005 November; 33(11): 1679-87 and Wang Q, et al., Evaluation of the MDR-MDCK cell line as a permeability screen for the blood-brain barrier. Int J. Pharm. 2005 Jan. 20; 288(2):349-59; each of which is hereby incorporated by reference. Test compound was formulated in 300 μL of DMSO at 10 mM and diluted to 5 μM in HBSSg with maximum DMSO concentration not greater than 1%. Confluent monolayers of MDR1-MDCK cells, 7 to 11 days old, were used. A receiver well, having apical and basolateral sides at pH 7.4, was used with 1% BSA in modified Hanks buffer (HBSSg). Two monolayers were dosed with test compound in each direction (N=2). Apical side dosing was used for A-B assessment and basolateral side was used for B-A assessment; taken together, this information provides a bidirectional permeability potential. Apical and basolateral sides were sampled at 120 minutes and concentrations of test compound were determined using an LC-MS/MS method with a minimum 4 point calibration curve. Apparent permeability (Papp) in both directions (A-B and B-A) was calculated, as was the efflux ratio (Papp B-A)/(Papp A-B).

Tau441, sequence (P10636 1-441 isoform P10636-8): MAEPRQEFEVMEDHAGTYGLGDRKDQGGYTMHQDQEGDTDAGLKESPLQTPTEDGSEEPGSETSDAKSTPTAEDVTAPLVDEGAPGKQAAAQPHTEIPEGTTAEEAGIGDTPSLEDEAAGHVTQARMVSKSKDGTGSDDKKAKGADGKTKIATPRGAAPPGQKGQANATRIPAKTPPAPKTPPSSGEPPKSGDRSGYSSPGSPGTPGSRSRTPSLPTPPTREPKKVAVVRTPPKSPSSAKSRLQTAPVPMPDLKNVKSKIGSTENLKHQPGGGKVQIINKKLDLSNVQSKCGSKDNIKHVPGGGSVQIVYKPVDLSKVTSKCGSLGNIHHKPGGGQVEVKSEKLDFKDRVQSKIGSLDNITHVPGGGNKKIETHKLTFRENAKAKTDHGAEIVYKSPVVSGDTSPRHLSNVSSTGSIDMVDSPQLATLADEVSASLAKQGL

On to `O=[N+]([O-])c1ccc(-c2cccc(C(O)C(F)(F)F)c2)cc1NCc1ccccc1` (centres unmarked) [TRV 1140, 1-(3′-(benzylamino)-4′-nitro-[1,1′-biphenyl]-3-yl)-2,2,2-trifluoroethanol], for which the “relative potency in tau aggregation assay (lower fluorescence is better)” value in data set [1] is on record as “Most potent”. The “inhibition of alpha-synuclein aggregation” value in data set [2] was “inhibit alpha-synuclein aggregation at 10 μM”. In addition, in data set [3] (MDCK-MDR1, apical dosing, pH 7.4, read-out: Papp A-B × 10^−6 cm/s), the Papp A→B at 120 min, 5 µM is 15.3 ×10⁻⁶ cm/s. Besides, in data set [3] (MDCK-MDR1, basolateral dosing, pH 7.4, read-out: Papp B-A × 10^−6 cm/s), the Papp B→A at 120 min, 5 µM worked out at 12.4 ×10⁻⁶ cm/s. In addition, the efflux ratio at 120 min, 5 µM in data set [3] (MDCK-MDR1, pH 7.4, read-out: Efflux ratio (Papp B-A)/(Papp A-B)) is 0.8.
